Test results reported in patent US6136841A, “3-, 8-substituted deuteroporphyrin derivatives, pharmaceutical agents that contain the latter, process for their production and their use in photodynamic therapy and MRI diagnosis” (Schering Aktiengesellschaft, priority 1998, dated 2000).
Where two headings read alike, the source gives them in different places.

How the values were obtained:
[1] = tested on: skin; conditions: in vivo; cited from earlier work
[2] = tested on: human colon carcinoma (HT-29 P9); test: Phototoxicity on a tumor cell culture, xenon lamp irradiation, live-dead coloration (Example 11); format: cell-based; conditions: irradiated with xenon lamp 8.5 k Lux, UV filter, three days; PE = porphyrin unit; 4320 min; read-out: ED50 (concentration at which about half of the cells are no longer vital)
Description: Determination of the phototoxicity (ED50) of compound Ic of WO 94/07894 (I) and of the title compound of Example 1d) (II) on a tumor cell culture.
In 25 ml culture flasks, a cell culture of human colon carcinoma (HT-29 P9) is reproduced for 3 days at 37° C. The cultures are divided into two groups and mixed with solutions of test substances (50 mmol of porphyrin unit (PE)/l, diluted with fetal calf serum) in increasing amounts (0; 1.5; 5; 8.5; 12; 15.5; 19 μmol of PE/l). The samples are irradiated for three days with a xenon lamp (8.5 k Lux, UV filter). The first group daily received 2 irradiations of 30 minutes each at an interval of 4 hours. For the rest of the time, it remains in the dark in an incubator. The second group is not exposed to light and remains in the dark in the incubator for the entire time. On the fourth day, the cell growth is determined by live-dead coloration and counting with the counting chamber.
The table indicates the concentration at which about half of the cells are no longer vital. (I: Example 1c of DE 4232925; II: Title compound of Example 1d)

[3] = tested on: human colon carcinomas (HT-29 P9); format: in vivo, hairless mouse
Description: Phototoxic effect of the compound [mu-16,16'-(7,12-diethyl-3,8,13,17-tetramethylporphyrin-2,18-diyl]bis[3,6,9-tris(carboxymethyl)-11,14-dioxo-3,6,9,12,13-pentaazahexadecanoato]}(8-)]}digadolinato(2-), disodium (Example 1c of WO 94/07894) on a tumor of a hairless mouse
Intracutaneous human colon carcinomas (HT-29 P9) are implanted in the sides of 15 hairless mice that weigh 24-30 g. The tumors are allowed to grow to a size of 5-10 mm. […] On days 1 and 3, i.v. substance is administered to the anesthetized animals. In this case, the animals of group 1 receive 2×130 μl of 0.9% NaCl solution, and they remain in the dark for the entire time. The animals of the second group receive 2×130 μl of a 100 mmol solution of the title compound, which corresponds to a dose of 2×0.5 mmol/kg of body weight. In each case, 30 minutes after administration, the animals are exposed to the light of a xenon lamp (8.5 k Lux, 1 cm glass as a UV filter) for 45 minutes. They spend the rest of the test time in the dark. 2×130 μl of a 100 mmol solution of test substance is also injected into the animals of the third group. The animals remain in the dark, however, for the duration of the test. On the 6th day after the substance is administered, the animals are sacrificed in ether. The tumor is measured, examined macroscopically, removed and tested histologically. […] In group 1, the range is 6.5×7.7 mm^2 up to 8.6×12.0 mm^2. In the very large tumors, which are fed by numerous blood vessels, small lesions of the skin (possibly bite marks) and in some cases deeper bleeding are evident in the center. […] With the animals of group 2, the following observations are made: […]

Molecule | Duration of skin sensitization [1] | IC50 [2] [µM] | Histology: diameter of multifocal central necrosis ([3]; group 2, 2×0.5 mmol/kg i.v. + light, three non-eroded tumors) | Phototoxic action (overall) ([3]; group 2, substance + light) | Tumor growth into the muscle layer ([3]; group 2, substance + light) | Tumor size / tumor growth at end of test ([3]; group 2, substance + light) | Histology: diameter of multifocal central necrosis ([3]; group 3, 2×130 μl of 100 mmol solution, kept in the dark) | Tumor growth ([3]; group 3, substance, kept in the dark)
Oc1cccc(-c2c3nc(c(-c4cccc(O)c4)c4ccc([nH]4)c(-c4cccc(O)c4)c4nc(c(-c5cccc(O)c5)c5ccc2[nH]5)CC4)C=C3)c1 [m-THPC] | ~ 3 weeks |  |  |  |  |  |  | 
[mu-16,16'-(7,12-diethyl-3,8,13,17-tetramethylporphyrin-2,18-diyl]bis[3,6,9-tris(carboxymethyl)-11,14-dioxo-3,6,9,12,13-pentaazahexadecanoato]}(8-)]}digadolinato(2-), disodium [Example 1c of WO 94/07894] |  | 6.4 | 1.5-2.1 mm | strong phototoxic action | The tumor did not grow into the muscle layer | Comparative measurement of tumor size was no longer possible in view of the extent of the destruction of the tumors. Tumor growth took place, if at all, only in the periphery and in deep tumor layers | 0.1-0.8 mm | The tumors continue to fluorish
{Mu-[(16,16'-[zinc(II)-7,12-diethyl-3,8,13,17-tetramethylporphyrin-2,18-diyl]-bis[3,6,9-tris(carboxymethyl)-11,14-dioxo-3,6,9,12,13-pentaazahexadecanoato]}(8-)]}-digadolinato(2-), disodium [Example 1d] |  | 5.1 |  |  |  |  |  | 
